Measured values taken from publication PMC7859889 (ACS chemical biology, 2020).
Entries after “also recorded” stand apart in the source; their conditions may differ. Counter-ions that a name gives are not always drawn. Like-named read-outs stand apart in the source and are kept apart here.

Tests used:
HLA-ABC = HLA-ABC immunofluorescence; type: cell-based, human; conditions: for Emax / IC50: Homo sapiens; for Emax: read-out: Immunofluorescence Efficacy
C25cl48 cells = experiment: IF cell count cytotoxicity; type: cell-based, human; conditions: for Cell count Curve class: IF cell count cytotoxicity
HLA-B mRNA = experiment: HLA-B RT-qPCR tertiary assay; type: cell-based, human; conditions: for Emax: read-out: RT-qPCR Efficacy; for IC50: read-out: RT-qPCR IC50
[1] = test system: type I IFN – MHC class I pathway; experiment: Average / all assays; type: cell-based, human; conditions: for IC50: read-out: Average IC50; for hill slope: concentration-response curves
HLA-C = experiment: Multi Gene RT-qPCR, HLA-C; type: cell-based, human; conditions: compared to IFN-β treated cells; 4.0 ng/ml IFN-β plus 50 uM compound, 24 hrs
IFIT1 = experiment: Multi Gene RT-qPCR, IFIT1; type: cell-based, human; conditions: compared to IFN-β treated cells; 4.0 ng/ml IFN-β plus 50 uM compound, 24 hrs
MX1 = experiment: Multi Gene RT-qPCR, MX1; type: cell-based, human; conditions: compared to IFN-β treated cells; 4.0 ng/ml IFN-β plus 50 uM compound, 24 hrs
HLA and ISG genes = experiment: Multi Gene RT-qPCR, gene panel; type: cell-based, human; conditions: 4.0 ng/ml IFN-β plus 50 uM compound, 24 hrs; for effect on HLA and ISG gene expression (in words): C25cl48 cells
HLA-B HiBit cells = experiment: CellTiter-Glo; conditions: for IC50: read-out: CTG IC50; for CTG Efficacy: IFN-β = 0%, 92 uM Digitonin = −100% activity
[2] = test system: HLA-B HiBit (MHC class I); experiment: HLA-B HiBit luminescent reporter assay; conditions: for Emax: read-out: HiBit Efficacy; for HiBit Efficacy: 4.0 ng/ml IFN-β, IFN-β = 0%, DMSO alone = −100% activity
ISG15 = experiment: Multi Gene RT-qPCR, ISG15; type: cell-based, human; conditions: compared to IFN-β treated cells; 4.0 ng/ml IFN-β plus 50 uM compound, 24 hrs
[3] = cited from earlier work
HLA-A = experiment: Multi Gene RT-qPCR, HLA-A; type: cell-based, human; conditions: 4.0 ng/ml IFN-β plus 50 uM compound, 24 hrs
STAT1 = experiment: Western blot, STAT1 phosphorylation; type: cell-based, human; conditions: C25cl48 cells, 0.5 hrs, 4.0 ng/ml IFN-β plus IC95 concentration of compound
[4] = test system: IL-6 stimulation of whole blood; conditions: IL-6 stimulation of whole blood ref 20; cited from earlier work
[5] = 37.5 and 50 mg b.i.d. ref 43, 44; cited from earlier work
[6] = cited from earlier work; remark: listed apart in the source
[7] = read-out: Immunofluorescence IC50
[8] = cytotoxicity, 4.0 ng/ml IFN-β, 24 hours
[9] = HLA-ABC+ C25cl48 cells, IFN-β-stimulated, prednisolone acetate used for IF
[10] = HLA-B mRNA, C25cl48 cells, 4.0 ng/mL IFN-β
[11] = average of HiBit, Immunofluorescence, RT-qPCR
[12] = HLA-B HiBit clone AB-7 cells, 24 hours
[13] = read-out: HiBit IC50, HLA-B HiBit clone AB-7 cells, 4.0 ng/ml IFN-β plus compound titration, 24 hours
[14] = compared to IFN-β treated cells

Row | Structure (SMILES) | Emax (HLA-ABC) | IC50 (HLA-ABC; [7]) | Cell count Curve class (C25cl48 cells; C25cl48 cells) | Emax (HLA-B mRNA; Homo sapiens) | IC50 (HLA-B mRNA; Homo sapiens) | IC50 ([1]; Homo sapiens) | efficacy in reducing all HLA and ISG genes (HLA and ISG genes) | effect on HLA and ISG gene expression (in words) (HLA and ISG genes) | CTG Curve class (HLA-B HiBit cells; [8]) | Emax ([2]; Homo sapiens, 24 h) | HiBit Efficacy [2, 12] | further results
1 | COc1ccc(-c2nc(N3CCOCC3)c3sc(CN(C)c4ncc(C(=O)NO)cn4)cc3n2)cn1 [CUDC-907] | 100% | 5.8 nM | −3 | 73% | 23 nM | 19 nM | 70–80% | reduced 3 genes | −1b | 86% |  | Cell count Efficacy at highest concentration (C25cl48 cells): (10) %; decrease of HLA-C mRNA (HLA-C): ~ 75%; decrease of IFIT1 mRNA (IFIT1): ~ 75%; decrease of MX1 mRNA (MX1): ~ 75%; IC50 (HLA-B HiBit cells; Homo sapiens, 24 h): 3500 nM; CTG Efficacy (HLA-B HiBit cells; cytotoxicity): 40%
2 | Cc1sc2c(c1C)C(c1ccc(Cl)cc1)=N[C@@H](CC(=O)Nc1ccc(OCCOCCOCCOCCNc3cccc4c3C(=O)N(C3CCC(=O)NC3=O)C4=O)cc1)c1nnc(C)n1-2 (stereo partly shown) [ARV-825] |  |  | 4 |  |  |  | low efficacy | reduced IFIT1 while increasing ISG15 | −1b |  | 71% | Immunofluorescence Efficacy (HLA-ABC; [9]): 82%; RT-qPCR Curve class (HLA-B mRNA; [10]): −1b; RT-qPCR Efficacy (HLA-B mRNA; [10]): 43%; IC50 (HLA-B mRNA; [10]): 65 nM; Average Curve class [1, 11]: −1b; Average Efficacy [1, 11]: 65%; IC50 [1, 11]: 84 nM; decrease of IFIT1 mRNA (IFIT1): 84%; increase of ISG15 mRNA (ISG15): 2.8 fold; CTG Efficacy (HLA-B HiBit cells; cytotoxicity): 8%; IC50 (HLA-B HiBit cells; [8]): 53 nM; IC50 [2, 13]: 97 nM
3 | COc1cccc2c1C(=O)c1c(O)c3c(c(O)c1C2=O)C[C@@](O)(C(=O)CO)C[C@@H]3O[C@H]1C[C@H](N2CCO[C@H](OC)C2)[C@H](O)[C@H](C)O1 [Nemorubicin, nemorubicin] | 107% | 70 nM | 4 | 133% | 92 nM | 104 nM | > 99% | normalized all genes | 4 | 100% |  | 
4 | CCc1cnn2c(NCc3ccc[n+]([O-])c3)cc(N3CCCC[C@H]3CCO)nc12 [Dinaciclib, dinaciclib] | 100% |  | 4 | 117% |  |  |  | did not decrease any of the other genes tested; also recorded: increased HLA-C, ISG15, and MX1 | 4 | 100% |  | increase of HLA-C mRNA (HLA-C): ~ 3.3 fold; increase of ISG15 mRNA (ISG15): ~ 3.3 fold; increase of MX1 mRNA (MX1): ~ 3.3 fold; common adverse events [3]: leukopenia, thrombocytopenia, gastrointestinal symptoms, alopecia, and fatigue
5 | CC(C)[C@]12O[C@H]1[C@@H]1O[C@]13[C@]1(O[C@H]1C[C@H]1C4=C(CC[C@@]13C)C(=O)OC4)[C@@H]2O [triptolide] |  |  |  |  |  |  |  |  |  |  |  | hill slope [1]: ultrasensitive
6 | Cc1[nH]c2ccccc2c1CCNCc1ccc(/C=C/C(=O)NO)cc1 [Panobinostat, panobinostat] | 111% | 28 nM | 4 | 68% | 29 nM | 40 nM | 70–80% |  | −3 | 86% |  | potency relative to givinostat at inhibiting IFN-β-MHC class I pathway [1]: 45 x; effect on HLA-A mRNA (HLA-A): no effect; decrease of all genes tested except HLA-A (HLA and ISG genes; [14]): ~ 80%; CTG Efficacy at highest concentration (HLA-B HiBit cells): (25) %
7 | N#CC[C@H](C1CCCC1)n1cc(-c2ncnc3[nH]ccc23)cn1 [Ruxolitinib, ruxolitinib] | 100% | 880 nM | 4 | 115% | 1600 nM | 1200 nM |  |  | 4 |  | 100% | IC50 (HLA-ABC; 48 h, read-out: IC50, HLA-ABC+ cells control titration): 3500 nM; cell count response in control titrations (C25cl48 cells; C25cl48 cells, 48 hrs): bell shaped viability curve; phosphorylation of STAT1 (STAT1): prevented phosphorylation of STAT1; IC50 [4]: 282 ± 54 nM; CTG viability response in control titrations (HLA-B HiBit cells; HLA-B HiBit cells, 24 hrs): slight bell-shaped curve; IC50 ([2]; Homo sapiens, 24 h, read-out: HiBit IC50): 1100 nM; IC50 ([2]; Homo sapiens, 24 h, read-out: IC50, HiBit control titration): 340 ± 36 nM
8 | CCN(CC)Cc1ccc2cc(COC(=O)Nc3ccc(C(=O)NO)cc3)ccc2c1 [Givinostat HCl, Givinostat] | 100% | 260 nM | −3 | 100% | 4100 nM | 1800 nM | 70–80% | normalized HLA-A and -B to DMSO levels | −3 | 82% |  | Cell count Efficacy at highest concentration (C25cl48 cells): (25) %; decrease of ISGs (IFIT1, ISG15, MX1) (HLA and ISG genes; [14]): ~ 90%; safety signal at higher doses [5]: platelet count decrease; CTG Efficacy at highest concentration (HLA-B HiBit cells): (18) %
9 | C[C@@H]1CCN(C(=O)CC#N)C[C@@H]1N(C)c1ncnc2[nH]ccc12 [Tofacitinib, tofacitinib] | 100% |  | 4 | 83% |  |  |  |  | 4 |  | 100% | phosphorylation of STAT1 (STAT1): prevented phosphorylation of STAT1
10 | CS[C@H]1SC[C@H]2C(=O)N(C)[C@@H](C(C)C)C(=O)OC[C@@H](NC(=O)c3cnc4ccccc4n3)C(=O)N[C@@H](C)C(=O)N(C)[C@@H]1C(=O)N(C)[C@@H](C(C)C)C(=O)OC[C@@H](NC(=O)c1cnc3ccccc3n1)C(=O)N[C@@H](C)C(=O)N2C [Echinomycin, echinomycin] | 120% | 4.1 nM | 4 | 112% | 3 nM | 6 nM | > 99% | normalized all genes | 4 | 100% |  | hill slope [1]: ultrasensitive; adverse effects in Phase I clinical trial [6]: nausea, vomiting, reversible liver enzyme abnormalities, and allergic reactions
11 | CCS(=O)(=O)N1CC(CC#N)(n2cc(-c3ncnc4[nH]ccc34)cn2)C1 [Baricitinib, baricitinib] | 100% |  | 4 | 100% |  |  |  |  | 4 |  | 100% | phosphorylation of STAT1 (STAT1): prevented phosphorylation of STAT1
12 | CC(C)[C@]12O[C@H]1[C@@H]1O[C@@]13[C@@]1(C)CCC4=C(COC4=O)[C@@H]1C[C@@H]1O[C@@]13C2=O [Triptonide, triptonide] |  |  | 4 |  |  |  | > 99% | normalized all genes | 4 |  | 100% | Immunofluorescence Curve class (HLA-ABC; [9]): −1a; Immunofluorescence Efficacy (HLA-ABC; [9]): 100%; RT-qPCR Curve class (HLA-B mRNA; [10]): −1a; RT-qPCR Efficacy (HLA-B mRNA; [10]): 113%; IC50 (HLA-B mRNA; [10]): 500 nM; Average Curve class [1, 11]: −1a; Average Efficacy [1, 11]: 104%; hill slope [1]: ultrasensitive; IC50 [1, 11]: 246 nM; HiBit Curve class ([2]; HLA-B HiBit clone AB-7 cells, 4.0 ng/ml IFN-β plus compound titration, 24 hours): −1a; IC50 [2, 13]: 47 nM
13 | C[C@]12C=CC(=O)C=C1CC[C@@H]1[C@@H]2[C@@H](O)C[C@@]2(C)[C@H]1CC[C@]2(O)C(=O)CO [Prednisolone] | 31% |  | 4 | 14% | 30 nM | 43 nM |  | increased ISG15 and MX1 | 4 |  |  | increase of ISG15 mRNA (ISG15): ~ 3.4 fold; increase of MX1 mRNA (MX1): ~ 3.4 fold
